# Assay results reported in article PMC3724985, “Isolation, biochemical characterization, and cloning of a bacteriocin from the poultry-associated Staphylococcus aureus strain CH-91” (Applied Microbiology and Biotechnology, 2012).
# Test system: StpC
# Assay: Residual proteolytic activity of culture media with E-64 (Hide Powder Azure)
# Format: biochemical
# Settings: E-64 at 0.01, 0.1 and 1.0 mM in S. aureus CH-91 culture (TSB, 37 °C), 0.1 M Tris–HCl pH 7.5, 5 mM cysteine, 5 mM EDTA
# Description: S. aureus CH-91 was cultured at 37 °C in TSB supplemented with the cysteine peptidase inhibitor E-64 (1-[N-[(L-3-trans-carboxyoxirane-2-carbonyl)-L-leucyl] amino]-4-guanidinobutane; Sigma) at final concentrations of 1.0, 0.1, and 0.01 mM. Aliquots were removed at 5, 10, and 24 h, and the bacteria-free supernatants were obtained by centrifugation.
# The residual proteolytic activity of collected culture media was determined at 37 °C using Hide Powder Azure (Calbiochem) in 0.1 M Tris–HCl (pH 7.5) supplemented with 5 mM cysteine and 5 mM EDTA.
smiles,measurement,value
"CC(C)C[C@H](NC(=O)[C@H]1O[C@@H]1C(=O)O)C(=O)NCCCCNC(=N)N (relative stereo) [E-64, 1-[N-[(L-3-trans-carboxyoxirane-2-carbonyl)-L-leucyl]amino]-4-guanidinobutane]",residual proteolytic activity in culture media containing the inhibitor,No residual proteolytic activity was detected
